Assay results: patent US12714696B2, “Low dose fluralaner compositions for protection against parasitic invertebrate pest” (VIRBAC, priority 2019, dated 2026)
Read-outs that look alike come from different tables or passages of the source.

How the values were obtained:
[1] = system: C. felis fleas; assay: Efficacy against fleas on dogs, oral 35 μg/kg study; type: in vivo
Experimental: The second objective was to investigate the pharmacodynamics between the fluralaner plasmatic dose and the effectiveness against fleas. • IVP: Investigational Veterinary Product, is pure Fluralaner+DMSO (35 μg/kg on Days 0 to 3 (0.35 mL/kg)) • Control product is DMSO (0.35 mL/kg on Days 0 to 3)
On Days 0, 1, 2 and 3, all dogs assigned to group 2 received the Investigational Veterinary Product. On Days 0 to 3 all dogs in group 1 received the control product at a volume equal to the dogs in group 2. Dogs assigned to group 1 received the control product and served as Placebo controls. The quantity of Investigational Veterinary Product and control product administered was calculated according to the dog's individual body weight measured on Day −1.
Dogs were infested with approximately 100 (±8) viable, adult, C. felis fleas on Day −6 for randomisation purposes and on Days 1, 2 and 3 to assess efficacy. Fleas were removed and counted on Days −5, 2, 3 and 4 (24 hours±2 hours after infestation). Dogs were also infested with approximately 50 (±4) viable, adult, unfed R. sanguineus ticks on Day 4 to assess acaricidal efficacy. Ticks will be removed and counted on Day 5 (24 hours±2 hours after infestation).
(§1) The efficacy against ticks and fleas were calculated for the study groups at each assessment day according to the formulas given below.
(§2) Efficacy was calculated as follows: Efficacy (%)=100×(Mc−Mt)/Mc, where: • Mc=Mean number of live ticks (categories 1 to 2) or live fleas on dogs in the negative control group (group 1) at a specific time point. • Mt=Mean number of live ticks (categories 1 to 2) or live fleas on dogs in the IVP group (group 2) • at a specific time point.

[2] = Pharmacokinetic profile of Bravecto spot-on after single topical administration on dogs; details: dog, in vivo, topical or ocular, 6250 ug/kg, Bravecto spot-on single topical 6250 μg/kg
Experimental: The objective of the study is to determine the pharmacokinetic profile of the Bravecto spot-on containing fluralaner after a single topical administration on dogs at a dose rate of 6250 μg/kg after feeding. • IVP: Investigational Veterinary Product, is Bravecto spot-on containing fluralaner at a dose rate of 6250 μg/kg (22.3112 μL/kg) on Day 0
Ten dogs were enrolled in the study of which six were included meeting the inclusion criteria. In addition, veterinary examinations (Day −14 and Day −2±one day), general health observations (all days) and weighing of all dogs (Day −2±one day) were performed.
On Day 0, all dogs will receive the IVP at a dose rate of 6250 μg/kg. The quantity of IVP to be administered will be calculated according to the dog's individual body weight. Dogs will be observed hourly (±15 minutes) for four hours after administration on Day 0.
Blood specimens will be collected from all dogs on Days −14 and −7 for clinical chemistry and hematology for inclusion and for pharmacokinetic analysis prior to IVP treatment on Day 0 and on Days 1 (+24 hours), 3 (+72 hours), 5 (+120 hours), 7 (+168 hours), 10 (+240 hours), 14 (+336 hours), 21 (+504 hours), 28 (+672 hours), 35 (+840 hours), 42 (+1008 hours), 49 (+1176 hours), 56 (+1344 hours) and 60 (+1440 hours).
The PK parameters of fluralaner were calculated using a non-compartmental approach.
The following rules were applied for the calculation of the PK parameters: • All the plasma concentrations, validated by the bioanalytical laboratory, were used for the PK analysis. • The actual blood sampling times were used throughout. • Concentrations below the Limit of Quantification (LOQ) value were considered as zero from time zero (pre-dose) up to the time at which the first quantifiable concentration above the LOQ value was observed. Concentrations below the LOQ value between two quantifiable concentrations were considered as missing. Trailing concentrations below the LOQ value were not used in calculations.
Cmax the observed maximum concentration in plasma measured after dosing.
tmax the time at which Cmax was apparent.
λz the terminal rate constant (λz) was estimated by log-linear regression analysis on data points visually assessed, to be on the terminal log-linear phase. For the slope of the terminal elimination phase to be accepted as reliable, the following criteria were used: • the terminal data points were apparently randomly distributed about a single straight line (on visual inspection), • a minimum of three data points, including the last measured data point and excluding Cmax, were available for the regression.
t1/2 the terminal plasma half-life (t1/2) was calculated according to the following equation: […]
AUC0-t the area under the concentration-time curve from time zero (pre-dose) to the time of last quantifiable concentration (t) was calculated using a linear trapezoidal method.
[AUC0-∞=AUC0-t+(Ct/λz)], where Ct was the observed concentration of drug for the last sample on the PK profile in which the drug was detected, and λz was as defined above.
The extrapolated area under the curve, expressed as a percentage of the total area, AUCinf, was also calculated as: Area Extra (%)=(AUC0-∞−AUC0-t)/AUC0-∞*100%.

[3] = Adverse event observation, oral study against fleas; type: in vivo, beagle dogs; details: oral 35 μg/kg Days 0-3, dogs
Experimental: Dogs were observed hourly±15 minutes for four hours after administration on Day 0 and once daily two hours±15 minutes after Investigational Veterinary Product or control product administration on Days 1, 2 and 3. Observations were conducted for each individual dog.

[4] = system: Rhipicephalus sanguineus; assay: Efficacy against ticks on dogs, oral 250/35/600 μg/kg study; type: in vivo
[5] = system: C. felis fleas; assay: Efficacy against fleas on dogs, oral 250/35/600 μg/kg study; type: in vivo; details: Day 3, following 3 consecutive doses of 250 μg/kg per day
Experimental: The second objective is to investigate the pharmacodynamics between the fluralaner plasmatic dose and the effectiveness against ticks. • IVP: Investigational Veterinary Product, is pure Fluralaner+DMSO (250 μg/kg on Days 0 to 3 (0.25 mL/kg), then 35 μg/kg on Days 4 to 9 (0.35 mL/kg), then 600 μg/kg on Day 11) • Control product is DMSO (0.25 mL/kg on Days 0 to 3, then 0.35 mL/kg on Days 4 to 9)
Dogs were infested with approximately 50 (±4) viable, adult, unfed R. sanguineus ticks on Days 1, 3, 5, 8, 10, 12, 16, 22, 26 and 30 to assess efficacy. Ticks will be removed and counted on Days 3, 5, 7 (48 hours±2 hours after infestation) and 9, 11, 13, 17, 24, 27, 32 (24 hours±2 hours after infestation). […] Fleas will be removed and counted on Days −5 (+1 day) and 3 (24 hours±2 hours after infestation).
as §1, §2

Q: For `Cc1cc(C2=NOC(c3cc(Cl)cc(Cl)c3)(C(F)(F)F)C2)ccc1C(=O)NCC(=O)NCC(F)(F)F` (centres unmarked) [fluralaner, Fluralaner], which efficacy against fleas ([1]; 24 h after the first three doses of 35 μg/kg per day, dogs) is on record?
A: The efficacy against fleas was 100%.

Q: What about the efficacy against fleas ([1]; 24 h after the first two doses of 35 μg/kg per day, dogs) of the same compound?
A: Its efficacy against fleas is 99.6%.

Q: What about the efficacy against fleas ([1]; after the fourth and final dose of 35 μg/kg per day, dogs) of the same compound?
A: The efficacy against fleas was 99.8%.

Q: What about the “efficacy against fleas from 24 hours after administration” value ([1]; infestation at D1, first measurement at D2, whatever the dose) of the same compound?
A: The value was “high efficacy”.

Q: And the efficacy against fleas ([1]; period Day 2 to Day 4, 24 hours after infestation, oral 35 μg/kg Days 0-3, dogs)?
A: Its efficacy against fleas is 100%.

Q: What about the AUC(0-t) ([2]; dogs without 86D 6FA, n=5, read-out: fluralaner AUC0-t, Mean) of the same compound?
A: The AUC(0-t) was 181 µg·h/mL.

Q: And the Cmax ([2]; dogs without 86D 6FA, n=5, read-out: fluralaner Cmax, Mean)?
A: Its Cmax is 238 ng/mL.

Q: What about the half-life ([2]; dogs without 86D 6FA, n=5, read-out: fluralaner t½ (terminal half-life), Mean (converted)) of the same compound?
A: Its half-life is 16.2 days.

Q: And the Cmax ([2]; dogs, read-out: maximum concentration (Cmax), range)?
A: The Cmax was 161 to 353 ng/mL.

Q: And the half-life ([2]; dogs, read-out: terminal half-life, range)?
A: Its half-life is 14.2 to 20.4 days.

Q: What about the “Adverse Events as a result of the product” value [3] of the same compound?
A: Its value is “No Adverse Events”.

Q: What about the “live ticks, geometric mean, Group 2” value ([4]; Day 23, oral 250/35/600 μg/kg regimen) of the same compound?
A: Its value is 16.2.

Q: What about the “live ticks, geometric mean, Group 2” value ([4]; Day 31, oral 250/35/600 μg/kg regimen) of the same compound?
A: Its value is 13.3.

Q: And the efficacy against fleas [5]?
A: The efficacy against fleas was 92%.
